Assay results from patent US8609635B2, “Fused tricyclic silyl compounds and methods of use thereof for the treatment of viral diseases” (priority 2010, dated 2013).

Legend:
HCV replicon gt1b_con1 = experiment: Cell-based HCV replicon assay (TaqMan), genotype 1b (Con1); settings: Hepatitis C virus, 72 h; replicon 1b (Con1); replicon RNA by TaqMan, day 3
Procedure: (§1) Measurement of inhibition by compounds of the present invention was performed using the HCV replicon system. Several different replicons encoding different HCV genotypes or mutations were used. In addition, potency measurements were made using different formats of the replicon assay, including different ways of measurements and different plating formats. See Jan M. Vrolijk et al., A replicons-based bioassay for the measurement of interferons in patients with chronic hepatitis C, 110 J. VIROLOGICAL METHODS 201 (2003); Steven S. Carroll et al., Inhibition of Hepatitis C Virus RNA Replication by 2′-Modified Nucleoside Analogs, 278(14) J. BIOLOGICAL […] 11979 (2003). However, the underlying principles are common to all of these determinations, and are outlined below.
(§2) Compounds of the present invention were assayed for cell-based anti-HCV activity using the following protocol. Replicon cells were seeded at 5000 cells/well in 96-well collagen I-coated Nunc plates in the presence of the test compound. Various concentrations of test compound, typically in 10 serial 2-fold dilutions, were added to the assay mixture, with the starting concentration ranging from 250 μM to 1 μM. The final concentration of DMSO was 0.5%, fetal bovine serum was 5%, in the assay media. Cells were harvested on day 3 by the addition of 1× cell lysis buffer (Ambion cat #8721). The replicon RNA level was measured using real time PCR (TaqMan® assay). The amplicon was located in 5B. The PCR primers were: 5B.2F, […] (SEQ. ID NO. 1); 5B.2R, […] (SEQ. ID NO. 2); the probe sequence was FAM-labeled […] (SEQ. ID NO. 3). GAPDH RNA was used as endogenous control and was amplified in the same reaction as NS5B (multiplex PCR) using primers and VIC-labeled probe recommended by the manufacturer (PE Applied Biosystem). The real-time RT-PCR reactions were run on ABI PRISM 7900HT Sequence Detection System using the following program: 48° C. for 30 minutes, 95° C. for 10 minutes, 40 cycles of 95° C. for 15 sec, 60° C. for 1 minute. The ΔCT values (CT5B-CTGAPDH) were plotted against the concentration of test compound and fitted to the sigmoid dose-response model using XLfit4 (MDL). […] Alternatively, to quantitate the absolute amount of replicon RNA, a standard curve was established by including serially diluted T7 transcripts of replicon RNA in the Taqman assay. All TaqMan® reagents were from PE Applied Biosystems. Such an assay procedure was described in detail in e.g. Malcolm et al., Antimicrobial Agents and Chemotherapy 50: 1013-1020 (2006).
(§3) Wherein gt1a_H77 was prepared as described in Yi et al., J Virol. 2004, 78(15):7904-15; gt1b_con1 was prepared as described in Lohmann et al., Science 1999, 285(5424):110-3; and gt2a_JFH was prepared as described in Kato et al., Gastroenterology. 2003, 125(6):1808-17. Chimeric replicons contain NS5A from patient isolates of genotypes 1a, 1b, 2b, 3a and 4a as indicated.

[1] = tested on: HCV replicon 1a (Y93H) mutant; experiment: Cell-based HCV replicon assay (TaqMan), genotype 1a mutant Y93H; settings: Hepatitis C virus, 72 h, read-out: HCV replicon EC50 1a (Y93H)
Procedure: as §1, §2, §3

[2] = tested on: HCV chimeric replicon with NS5A of genotype 3a (NC00982); experiment: Cell-based HCV replicon assay (TaqMan), chimeric replicon genotype 3a (NC00982); settings: Hepatitis C virus, 72 h, read-out: HCV replicon EC50 3a (NC00982), chimeric replicon 3a (NC00982); replicon RNA by TaqMan, day 3
Procedure: as §1, §2, §3

HCV replicon gt2a_JFH = experiment: Cell-based HCV replicon assay (TaqMan), genotype 2a (JFH); settings: Hepatitis C virus, 72 h, replicon 2a (JFH); replicon RNA by TaqMan, day 3
Procedure: as §1, §2, §3

HCV replicon gt1a_H77 = experiment: Cell-based HCV replicon assay (TaqMan), genotype 1a (H77); settings: Hepatitis C virus, 72 h, replicon 1a (H77); replicon RNA by TaqMan, day 3
Procedure: as §1, §2, §3

[3] = tested on: HCV chimeric replicon with NS5A of genotype 4a (DQ41878); experiment: Cell-based HCV replicon assay (TaqMan), chimeric replicon genotype 4a (DQ41878); settings: Hepatitis C virus, 72 h, read-out: HCV replicon EC50 4a (DQ41878)
Procedure: as §1, §2, §3

Structure (SMILES) | EC50 (HCV replicon gt1b_con1) [nM] | EC50 [1] [nM] | EC50 [2] [nM] | EC50 (HCV replicon gt2a_JFH) [nM] | EC50 (HCV replicon gt1a_H77) [nM] | EC50 [3] [nM]
COC(=O)N[C@H](C(=O)N1C[Si](C)(C)C[C@H]1c1ncc(-c2ccc(-c3ccc4c(ccc5nc([C@@H]6CCCN6C(=O)[C@@H](NC(=O)OC)C(C)C)[nH]c54)c3)cc2-c2cccs2)[nH]1)C(C)C [Compound 50] | 0.008 | 1150 | 3 | 1.62 | 0.505 | –
COC(=O)NC(C(=O)N1C[Si](C)(C)CC1c1ncc(-c2ccc(-c3ccc4c(ccc5nc([C@@H]6CCCN6C(=O)C(NC(=O)OC)C(C)C)[nH]c54)c3)cc2)[nH]1)C(C)C (stereo partly shown) [Compound 2] | 0.004 | – | 0.05 | 0.019 | 0.01 | –
COC(=O)N[C@H](C(=O)N1C[Si](C)(C)C[C@H]1c1ncc(-c2ccc(-c3ccc4c(ccc5nc([C@@H]6CCCN6C(=O)[C@@H](NC(=O)OC)C(C)C)[nH]c54)c3)cc2OC)[nH]1)C(C)C [Compound 46] | 0.004 | 497 | 2.4 | 0.6 | 0.26 | –
COC(=O)N[C@H](C(=O)N1C[Si](C)(C)C[C@H]1c1ncc(-c2ccc(-c3ccc4c(ccc5nc([C@@H]6CCCN6C(=O)[C@@H](NC(=O)OC)C(C)C)[nH]c54)c3)nc2)[nH]1)C(C)C [Compound 49] | 0.014 | 185 | 0.2 | 0.037 | 0.04 | –
COC(=O)NC(C(=O)N1C2CCC(C2)C1c1ncc(-c2ccc(-c3ccc4c(ccc5nc([C@@H]6C[Si](C)(C)CN6C(=O)C(NC(=O)OC)C(C)C)[nH]c54)c3)cc2)[nH]1)C(C)C (stereo partly shown) [Compound 15] | 0.011 | 131 | 1 | 0.12 | 0.088 | –
COC(=O)N[C@H](C(=O)N1C[Si](C)(C)C[C@H]1c1ncc(-c2ccc(-c3ccc4c(ccc5nc([C@@H]6CCCN6C(=O)[C@@H](NC(=O)OC)C(C)C)[nH]c54)c3)cc2F)[nH]1)C(C)C [Compound 48] | 0.004 | 329 | 0.25 | 0.07 | 0.05 | –
COC(=O)NC(C(=O)N1CCCC1c1ncc(-c2ccc(-c3ccc4c(ccc5nc([C@@H]6C[Si](C)(C)CN6C(=O)C(NC(=O)OC)C(C)C)[nH]c54)c3)cc2)[nH]1)C(C)C (stereo partly shown) [Compound 1] | 0.003 | – | 0.26 | 0.003 | 0.003 | 0.067
COC(=O)N[C@H](C(=O)N1C[Si](C)(C)C[C@H]1c1ncc(-c2ccc(-c3ccc4c(ccc5nc([C@@H]6CC(F)(F)CN6C(=O)[C@@H](NC(=O)OC)C(C)C)[nH]c54)c3)cc2F)[nH]1)C(C)C [Compound 71] | < 0.002 | 188 | 0.9 | 0.45 | 0.12 | –
COC(=O)N[C@H](C(=O)N1CC(O)C[C@H]1c1ncc(-c2ccc(-c3ccc4c(ccc5nc([C@@H]6C[Si](C)(C)CN6C(=O)[C@@H](NC(=O)OC)C(C)C)[nH]c54)c3)cc2)[nH]1)C(C)C (stereo partly shown) [Compound 65] | 0.004 | 44 | 1.7 | 0.3 | 0.06 | –
COC(=O)N[C@H](C(=O)N1C[Si](C)(C)C[C@H]1c1ncc(-c2ccc(-c3ccc4c(ccc5nc([C@@H]6CCCN6C(=O)[C@@H](NC(=O)OC)C(C)C)[nH]c54)c3)cc2OCCO)[nH]1)C(C)C [Compound 44] | 0.007 | 1390 | 31 | > 10 | > 1 | –
